Among the test systems are MCF7 breast; SF-539 CNS; MOLT-4 leukemia; OVCAR-8 ovarian; RXF 393 renal; MALME-3M melanoma; SK-OV-3 ovarian; HT29 colon; KM12 colon; TK-10 renal.
Assay in all cases: NCI anticancer screen, dose series, 48 h

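Values below derive from 48-hour exposures of cells grown in 96-well plates, with endpoints linearly interpolated between the two concentrations bracketing the appropriate inhibition level. Here, GI50 denotes the concentration required for 50% inhibition of growth. TGI: total growth inhibition.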

For `COc1cccc2c1ccc1nc3cccc(C(=O)N[C@H](C)CN(C)C)c3nc12`, the GI50 in the test with MCF7 breast is 0.0341 µM; in the test with SF-539 CNS, 0.157 µM; in the test with MOLT-4 leukemia, 0.0454 µM; with OVCAR-8 ovarian, 0.0528 µM; in the test on RXF 393 renal, 0.0984 µM; in the test on MALME-3M melanoma, 0.0806 µM. Further, the GI50 is 0.144 µM in the test with SK-OV-3 ovarian, 0.0427 µM with HT29 colon, 0.0724 µM in the test on KM12 colon and 0.0762 µM in the test with TK-10 renal. Further, the TGI in the test on MCF7 breast was determined as 1.58 µM; with SF-539 CNS it was 1.8 µM; in the test with MOLT-4 leukemia, 4.85 µM; with OVCAR-8 ovarian, 9.5 µM; in the test with RXF 393 renal it was 0.35 µM; in the test with MALME-3M melanoma, 0.473 µM. Also, the TGI in the test with SK-OV-3 ovarian came out at 1.89 µM; in the test with HT29 colon it was 0.365 µM; in the test with KM12 colon, 2.33 µM; in the test on TK-10 renal, 0.512 µM.

Turning to `CC1CC2OC(=O)C(C)C2CC2(C)C(OC3OC(CO)C(O)C(O)C3O)OCCC12` (centres undefined), the TGI in the test with MCF7 breast, in the test on SF-539 CNS, with MOLT-4 leukemia, in the test on OVCAR-8 ovarian, in the test on RXF 393 renal and with MALME-3M melanoma was over 100 µM in each case. Further, the TGI with SK-OV-3 ovarian, in the test with HT29 colon, in the test on KM12 colon and with TK-10 renal was over 100 µM throughout.

Take `CC1OC(OC2C[C@](O)(C(=O)CF)Cc3c(O)c4c(c(O)c32)C(=O)c2ccccc2C4=O)CC(N)C1O` (some centres undefined): the TGI worked out at 1.08 µM with MCF7 breast; 1.33 µM with SF-539 CNS; 0.0101 µM with MOLT-4 leukemia; 0.231 µM with OVCAR-8 ovarian; 0.268 µM with RXF 393 renal; 0.191 µM in the test with MALME-3M melanoma. Moreover, the TGI was determined as 1.04 µM in the test with SK-OV-3 ovarian, 0.0905 µM in the test on HT29 colon, 0.239 µM with KM12 colon and 0.497 µM in the test with TK-10 renal.

As to `Cc1ccc(-c2nc(C#N)c(S(=O)(=O)n3nc(C)cc3N)o2)cc1`, the GI50 was 3.07 µM in the test with MCF7 breast; 5.07 µM with SF-539 CNS; 1.97 µM with MOLT-4 leukemia; 4.66 µM in the test with OVCAR-8 ovarian; 1.87 µM in the test with RXF 393 renal; 1.82 µM in the test on MALME-3M melanoma. Moreover, the GI50 with SK-OV-3 ovarian was 27.5 µM; in the test with HT29 colon, 2.37 µM; with KM12 colon, 16.5 µM; in the test on TK-10 renal, 1.97 µM. In addition, the TGI in the test on MCF7 breast was 15.5 µM; with SF-539 CNS, 17.4 µM; in the test with MOLT-4 leukemia, 4.77 µM; in the test on OVCAR-8 ovarian it was 20.9 µM; in the test with RXF 393 renal, 3.56 µM; in the test with MALME-3M melanoma, 3.54 µM. In addition, the TGI worked out at 71.1 µM in the test with SK-OV-3 ovarian, 5.45 µM in the test with HT29 colon, 33.8 µM in the test with KM12 colon and 3.6 µM in the test on TK-10 renal.

Take `O=c1cc(-c2ccccc2F)[nH]c2ccc(N3CCCC3)cc12`: the GI50 was 0.488 µM with MCF7 breast; under 0.001 µM in the test on MOLT-4 leukemia; under 0.001 µM in the test on OVCAR-8 ovarian; under 0.001 µM in the test with RXF 393 renal; under 0.001 µM with SK-OV-3 ovarian; under 0.001 µM in the test on HT29 colon. In addition, the GI50 in the test on KM12 colon was under 0.001 µM; with TK-10 renal it was 74.9 µM. Also, the TGI in the test on MCF7 breast was over 100 µM; with SF-539 CNS, 0.0134 µM; in the test with MOLT-4 leukemia, over 100 µM; with RXF 393 renal it was over 100 µM; with MALME-3M melanoma, over 100 µM; in the test with TK-10 renal, over 100 µM.

On to `CN[C@H](C#Cc1c(F)ccc2c1/C(=C/c1[nH]ccc1OC)C(=O)N2)CO`, for which the GI50 was 0.569 µM in the test on MCF7 breast; 0.431 µM in the test with SF-539 CNS; 0.386 µM with MOLT-4 leukemia; 0.551 µM in the test with OVCAR-8 ovarian; 0.0855 µM in the test with RXF 393 renal; 1.46 µM with MALME-3M melanoma. The GI50 is 0.117 µM with SK-OV-3 ovarian, 0.438 µM with HT29 colon, 0.036 µM in the test on KM12 colon and 0.247 µM in the test with TK-10 renal. Besides, the TGI in the test on MCF7 breast was 3.68 µM; with SF-539 CNS, 1.53 µM; in the test with MOLT-4 leukemia, 3.8 µM; in the test on OVCAR-8 ovarian, 4.25 µM; in the test with RXF 393 renal, 0.704 µM; with MALME-3M melanoma it was 5.06 µM. The TGI was 8.12 µM in the test with SK-OV-3 ovarian, 2.39 µM in the test with HT29 colon, 1.76 µM in the test on KM12 colon and 2.25 µM in the test on TK-10 renal.

Consider `NC(=O)c1ccccc1Nc1ccc2nnc(-c3ccncc3)n2n1`, for which the GI50 in the test on MCF7 breast is 3.1 µM; in the test on SF-539 CNS, 15.3 µM; in the test with MOLT-4 leukemia, 5.18 µM; in the test on OVCAR-8 ovarian it was 8.07 µM; in the test on RXF 393 renal it was 3.77 µM; in the test with MALME-3M melanoma, 8.38 µM. The GI50 with SK-OV-3 ovarian was 15.4 µM; with HT29 colon it was 6.39 µM; in the test with KM12 colon, 9.34 µM; in the test on TK-10 renal, 6.81 µM. In addition, the TGI in the test with MCF7 breast came out at 16.1 µM; in the test with SF-539 CNS it was 28.9 µM; in the test on MOLT-4 leukemia, 30.4 µM; in the test with OVCAR-8 ovarian, 31.5 µM; with RXF 393 renal it was 18.1 µM; in the test with MALME-3M melanoma, 22.5 µM. Also, the TGI in the test with SK-OV-3 ovarian stood at 44.4 µM; in the test with HT29 colon, 19.2 µM; with KM12 colon it was 21.2 µM; with TK-10 renal it was 20.7 µM.

With `O=C1C(N2CC2)=C(N2CC2)C(=O)C(N2CC2)=C1N1CC1`, the GI50 with MCF7 breast was under 0.0218 µM; with SF-539 CNS, 0.104 µM; with MOLT-4 leukemia, 0.765 µM; in the test with OVCAR-8 ovarian, 0.344 µM; with RXF 393 renal, 0.218 µM; with MALME-3M melanoma, 0.225 µM. Moreover, the GI50 was 0.123 µM in the test on SK-OV-3 ovarian, 0.181 µM in the test with HT29 colon, 0.696 µM in the test with KM12 colon and 2.59 µM in the test with TK-10 renal. The TGI with MCF7 breast was 1.5 µM; with SF-539 CNS, 1.24 µM; with MOLT-4 leukemia it was over 100 µM; in the test with OVCAR-8 ovarian it was 6.99 µM; with RXF 393 renal, 1.01 µM; in the test on MALME-3M melanoma, 1.31 µM. In addition, the TGI with SK-OV-3 ovarian is 0.891 µM; with HT29 colon it was 15.1 µM; with KM12 colon, 2.72 µM; in the test on TK-10 renal, over 100 µM.

Source of the values: PubChem BioAssay (NCI).
